From patent publication US20170305857A1, “N-ACYLPIPERIDINE ETHER TROPOMYOSIN-RELATED KINASE INHIBITORS” (Pfizer Limited, priority 2014, published 2017) come the findings set out here.

T1 sequence (P04629 441-796): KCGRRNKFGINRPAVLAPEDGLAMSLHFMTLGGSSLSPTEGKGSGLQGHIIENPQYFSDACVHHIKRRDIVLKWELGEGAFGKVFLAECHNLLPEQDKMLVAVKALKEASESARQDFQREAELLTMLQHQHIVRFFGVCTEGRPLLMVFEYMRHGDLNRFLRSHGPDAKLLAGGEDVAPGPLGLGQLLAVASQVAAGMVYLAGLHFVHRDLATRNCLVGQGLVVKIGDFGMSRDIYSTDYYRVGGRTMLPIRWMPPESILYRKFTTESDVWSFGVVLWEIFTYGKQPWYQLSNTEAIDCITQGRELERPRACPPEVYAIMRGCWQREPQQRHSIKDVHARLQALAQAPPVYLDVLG

This experiment concerns the target T1, recombinant His-tagged cytoplasmic domains of TRKA receptor (NTRK1, PV3144, aa 441-796) (Homo sapiens, UniProt P04629).
T1 construct: aa 441-796; His; purchased Invitrogen PV3144
Nature of the experiment: Isolated TRK enzyme assay (HTRF KinEASE-TK, PV3144 TrkA enzyme assay). As to conditions: 4 nM enzyme, 40 uM ATP, 35 min, arithmetic mean where more than one reading. The experiment is classed as biochemical. In outline: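 Enzyme and ATP were preincubated with compound for 20 min at room temperature in buffer with 10 mM MgCl and 2 mM DTT. TK-substrate-Biotin was then added (1 uM final) and the reaction run for an enzyme-specific optimized time. Phosphorylation was read by HTRF, and IC50 values came from sigmoid fits of percent inhibition normalized to plate controls, averaged over replicate readings.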
In general terms: In TR-FRET formats the signal depends on donor and acceptor labels being close together.
In the case of `Cc1nn(C[C@H](O)CO)c(C)c1-c1ccc(OC2CCN(C(=O)Cc3ccc(OC(F)(F)F)cc3)CC2)c(C(N)=O)c1` [Example 124], the IC50 (commonly the concentration that inhibits the measured activity by half) was determined as 7.4 nM. As to `NC(=O)c1cc(-c2cnn(C3CCS(=O)(=O)C3)c2)ccc1OC1CCN(C(=O)Cc2ccc(OC(F)(F)F)cc2)CC1` (racemic) [Example 14, Racemic 5-[1-(1,1-dioxidotetrahydrothiophen-3-yl)-1H-pyrazol-4-yl]-2-[(1-{[4-(trifluoromethoxy)phenyl]acetyl}piperidin-4-yl)oxy]benzamide], the IC50 was 2.4 nM. With `COCc1ccc(-c2cnc(OC3CCN(C(=O)Cc4ccc(OC(F)(F)F)cc4)CC3)c(C(N)=O)c2)cc1` [Example 97, 5-[4-(methoxymethyl)phenyl]-2-[(1-{[4-(trifluoromethoxy)phenyl]acetyl}piperidin-4-yl)oxy]pyridine-3-carboxamide] the figure was 7.4 nM. `Cn1cnc(-c2ccc(O[C@@H]3CCN(C(=O)Cc4ccc(OC(F)(F)F)cc4)C[C@H]3F)c(C(N)=O)c2)c1` (single isomer, unassigned) [Example 112]: the IC50 stood at 6.4 nM. Regarding `Cn1cnc(-c2ccc(O[C@H]3[C@@H]4CC[C@H]3CN(C(=O)Cc3ccc(OC(F)(F)F)cc3)C4)c(C(N)=O)c2)c1` [Example 46, 5-(1-methyl-1H-imidazol-4-yl)-2-(((1R,5S,8r)-3-(2-(4-(trifluoromethoxy)phenyl)acetyl)-3-azabicyclo[3.2.1]octan-8-yl)oxy)benzamide], the IC50 came to 2.2 nM. `NC(=O)c1cc(-c2c[nH]cn2)ccc1OC1CCN(C(=O)Cc2ccc(OC(F)(F)F)cc2)CC1` [Example 127, 5-(1H-imidazol-4-yl)-2-[(1-{[4-(trifluoromethoxy)phenyl]acetyl}piperidin-4-yl)oxy]benzamide]: the 50% inhibitory concentration (IC50) amounted to 5.5 nM. For the compound `NC(=O)c1cc(-c2cnn(CCO)c2)ncc1OC1CCN(C(=O)Cc2ccc(OC(F)(F)F)cc2)CC1` [Example 175, 2-[1-(2-hydroxyethyl)-1H-pyrazol-4-yl]-5-[(1-{[4-(trifluoromethoxy)phenyl]acetyl}piperidin-4-yl)oxy]pyridine-4-carboxamide], the IC50 worked out at 17.1 nM. As for `Cn1cnc(-c2cnc(O[C@H]3CCN(C(=O)Cc4ccc(OC5CC5)cn4)C[C@@H]3F)c(C(N)=O)c2)c1` [Example 31, 2-{[(3S,4S)-1-{[5-(cyclopropyloxy)pyridin-2-yl]acetyl}-3-fluoropiperidin-4-yl]oxy}-5-(1-methyl-1H-imidazol-4-yl)pyridine-3-carboxamide], the half-maximal inhibitory concentration (IC50) is 9 nM. On to `Cc1nc[nH]c1-c1ccc(OC2CCN(C(=O)Cc3ccc(OC(F)(F)F)cc3)CC2)c(C(N)=O)c1` [Example 99, 5-(4-methyl-1H-imidazol-5-yl)-2-[(1-{[4-(trifluoromethoxy)phenyl]acetyl}piperidin-4-yl)oxy]benzamide], for which the IC50 came out at 7.7 nM.

As for `CC1CC(Oc2ccc(-c3cn(C)cn3)cc2C(N)=O)CCN1C(=O)Cc1ccc(OC(F)(F)F)cc1` (racemic) [Example 51, Racemic 2-((2-methyl-1-(2-(4-(trifluoromethoxy)phenyl)acetyl)piperidin-4-yl)oxy)-5-(1-methyl-1H-imidazol-4-yl)benzamide], the half-inhibitory concentration (IC50) came to 6.1 nM. The result for `Cn1cc(-c2cnc(O[C@@H]3CCN(C(=O)Cc4ccc(OC(F)(F)F)cc4)C[C@@H]3F)c(C(N)=O)c2)nn1` [Example 155, 2-[((3S,4R)-3-fluoro-1-{[4-(trifluoromethoxy)phenyl]acetyl}piperidin-4-yl)oxy]-5-(1-methyl-1H-1,2,3-triazol-4-yl)pyridine-3-carboxamide] reads 2.45 nM; that for `NCc1ccc(-c2cnc(OC3CCN(C(=O)Cc4ccc(OC(F)(F)F)cc4)CC3)c(C(N)=O)c2)cc1` [Example 98, 5-[4-(aminomethyl)phenyl]-2-[(1-{[4-(trifluoromethoxy)phenyl]acetyl}piperidin-4-yl)oxy]pyridine-3-carboxamide], 10.5 nM. With `NC(=O)c1cc(-c2cnn(C3CS(=O)(=O)C3)c2)ccc1O[C@@H]1CCN(C(=O)Cc2ccc(OC(F)(F)F)cc2)C[C@@H]1F` [Example 1, 5-[1-(1,1-dioxidothietan-3-yl)-1H-pyrazol-4-yl]-2-{[(3S,4R)-3-fluoro-1-{[4-(trifluoromethoxy)phenyl]acetyl}piperidin-4-yl]oxy}benzamide] the figure was 0.4 nM; with `NC(=O)c1cc(-c2cnn(C3CS(=O)(=O)C3)c2)cnc1O[C@H]1CCN(C(=O)Cc2ccc(OC(F)(F)F)cc2)C[C@H]1F` [Example 22, 5-[1-(1,1-dioxidothietan-3-yl)-1H-pyrazol-4-yl]-2-{[(3R,4S)-3-fluoro-1-{[4-(trifluoromethoxy)phenyl]acetyl}piperidin-4-yl]oxy}pyridine-3-carboxamide], 1.2 nM. With `Cn1cnc(-c2ccc(OC3CCN(C(=O)Cc4ccc(OC(F)(F)F)c(Cl)c4)CC3)c(C(N)=O)c2)c1` [Example 16, 2-[(1-{[3-chloro-4-(trifluoromethoxy)phenyl]acetyl}piperidin-4-yl)oxy]-5-(1-methyl-1H-imidazol-4-yl)benzamide], the concentration for half-maximal inhibition (IC50) stood at 10.5 nM. Turning to `NC(=O)c1cc(-c2cnn(C[C@@H](O)CO)c2)ccc1OC1CCN(C(=O)Cc2ccc(OC(F)(F)F)cc2)CC1` [Example 122], the IC50 worked out at 4.4 nM. For `NC(=O)c1cc(-c2c[nH]c(C(F)(F)F)n2)cnc1O[C@@H]1CCN(C(=O)Cc2ccc(OC(F)(F)F)cc2)C[C@@H]1F` [Example 183, 2-{[(3S,4R)-3-fluoro-1-{[4-(trifluoromethoxy)phenyl]acetyl}piperidin-4-yl]oxy}-5-[2-(trifluoromethyl)-1H-imidazol-4-yl]pyridine-3-carboxamide], the 50% inhibitory concentration (IC50) stood at 7.12 nM. Consider `NC(=O)c1cc(-c2c[nH]cn2)cnc1O[C@@H]1CCN(C(=O)Cc2ccc(OC(F)(F)F)cc2)C[C@@H]1F` [Example 81, 2-{[(3S,4R)-3-fluoro-1-{[4-(trifluoromethoxy)phenyl]acetyl}piperidin-4-yl]oxy}-5-(1H-imidazol-4-yl)pyridine-3-carboxamide], for which the IC50 is 2.5 nM. As for `C[C@H](O)c1ccc(-c2cnc(OC3CCN(C(=O)Cc4ccc(OC(F)(F)F)cc4)CC3)c(C(N)=O)c2)cc1` [Example 152, 5-{4-[(1S)-1-hydroxyethyl]phenyl}-2-[(1-{[4-(trifluoromethoxy)phenyl]acetyl}piperidin-4-yl)oxy]pyridine-3-carboxamide], the 50% inhibitory concentration (IC50) amounted to 12.7 nM. As to `Cc1cc(OC2CCN(C(=O)Cc3ccc(OC(F)(F)F)cc3)CC2)c(C(N)=O)cc1-c1cn(C)cn1` [Example 170, 4-methyl-5-(1-methyl-1H-imidazol-4-yl)-2-[(1-{[4-(trifluoromethoxy)phenyl]acetyl}piperidin-4-yl)oxy]benzamide], the concentration for half-maximal inhibition (IC50) is 17.6 nM. With `CC(C)(CO)n1cc(-c2ccc(OC3CCN(C(=O)Cc4ccc(OC(F)(F)F)cc4)CC3)c(C(N)=O)c2)cn1` [Example 62, 5-[1-(1-hydroxy-2-methylpropan-2-yl)-1H-pyrazol-4-yl]-2-[(1-{[4-(trifluoromethoxy)phenyl]acetyl}piperidin-4-yl)oxy]benzamide], the IC50 was found to be 4 nM. On to `NC(=O)c1cc(-c2cn[nH]c2)cnc1O[C@@H]1CCN(C(=O)Cc2ccc(OC(F)(F)F)cc2)C[C@@H]1F` [Example 70, 2-{[(3S,4R)-3-fluoro-1-{[4-(trifluoromethoxy)phenyl]acetyl}piperidin-4-yl]oxy}-5-(1H-pyrazol-4-yl)pyridine-3-carboxamide], for which the half-inhibitory concentration (IC50) was 1.6 nM. The result for `CC(C)(N)c1ccc(-c2ccc(OC3CCN(C(=O)Cc4ccc(OC(F)(F)F)cc4)CC3)c(C(N)=O)c2)cc1` [Example 65, 4'-(2-aminopropan-2-yl)-4-[(1-{[4-(trifluoromethoxy)phenyl]acetyl}piperidin-4-yl)oxy]biphenyl-3-carboxamide] reads 3.5 nM; that for `CC(N)c1ccc(-c2ccc(OC3CCN(C(=O)Cc4ccc(OC(F)(F)F)cc4)CC3)c(C(N)=O)c2)cc1` (racemic) [Example 103, Racemic 4′-(1-aminoethyl)-4-[(1-{[4-(trifluoromethoxy)phenyl]acetyl}piperidin-4-yl)oxy]biphenyl-3-carboxamide], 2.7 nM. The result for `NC(=O)c1cc(-c2cnn(C3CS(=O)(=O)C3)c2)cnc1O[C@H]1CCN(C(=O)Cc2ccc(OC3CC3)cn2)C[C@H]1F` (racemic) [Example 39, 1:1 Cis-racemic 2-{[1-{[5-(cyclopropyloxy)pyridin-2-yl]acetyl}-3-fluoropiperidin-4-yl]oxy}-5-[1-(1,1-dioxidothietan-3-yl)-1H-pyrazol-4-yl]pyridine-3-carboxamide] reads 7 nM; that for `Cn1cnc(-c2ccc(O[C@H]3CCN(C(=O)Cc4ccc(OC5CC5)cc4)C[C@@H]3F)c(C(N)=O)c2)c1` [Example 42, 2-{[(3S,4S)-1-{[4-(cyclopropyloxy)phenyl]acetyl}-3-fluoropiperidin-4-yl]oxy}-5-(1-methyl-1H-imidazol-4-yl)benzamide], 3.1 nM; that for `NC(=O)c1cc(-c2cnn(CC3(O)COC3)c2)ccc1OC1CCN(C(=O)Cc2ccc(OC(F)(F)F)cc2)CC1` [Example 129, 5-{1-[(3-hydroxyoxetan-3-yl)methyl]-1H-pyrazol-4-yl}-2-[(1-{[4-(trifluoromethoxy)phenyl]acetyl}piperidin-4-yl)oxy]benzamide], 6.9 nM.

For the compound `NC(=O)c1cc(-c2ccc(N)nc2)ccc1OC1CCN(C(=O)Cc2ccc(OC(F)(F)F)cc2)CC1` [Example 104, 5-(6-aminopyridin-3-yl)-2-[(1-{[4-(trifluoromethoxy)phenyl]acetyl}piperidin-4-yl)oxy]benzamide], the IC50 was 4 nM.

As for `Cc1nc(-c2cnc(OC3CCN(C(=O)Cc4ccc(OC(F)(F)F)cc4)CC3)c(C(N)=O)c2)c[nH]1` [Example 139, 5-(2-methyl-1H-imidazol-4-yl)-2-[(1-{[4-(trifluoromethoxy)phenyl]acetyl}piperidin-4-yl)oxy]pyridine-3-carboxamide], the IC50 came to 10.7 nM.
